Laboratory results published in patent publication US9555050B2 (BIOGEN MA INC., priority 2012, dated 2017).

Target: T1, Human ATX protein (Homo sapiens, UniProt Q13822)
T1 construct: made in house
Assay: ATX biochemical FRET assay with FS-3 substrate
Conditions: FS-3 substrate 2 μM, ATX 1.0 μg/mL, 30 min preincubation, 2 hours at room temperature
From the text: ATX (Autotaxin) is a 125 KDa glycoprotein with lysophospholipase D (LPLD) activity that generates the bioactive lipid lysophosphatidic acid (LPA) from lysophosphatidylcholine (LPC). The ATX biochemical assay utilizes a FRET (fluorescence resonance energy transfer) technology platform. The fluorescence signal of FRET substrate FS-3 is quenched due to intra-molecular FRET of a fluorophore to a non-fluorescing quencher (Ferguson, C. G., et al., Org Lett. 2006 May 11; 8(10): 2023-2026, which is incorporated by reference in its entirety). ATX catalyzes the hydrolysis of the substrate which separates the dabsyl quencher from the fluorescein reporter, which becomes fluorescent. The reaction is monitored by a SpectraMax M5 (Molecular Devices, Sunnyvale, Calif.) with at excitation wavelength 485 nm and emission wavelength […].
Fatty acid free-BSA (Sigma A8806): 10 mg/mL in H2O, stored at 4° C.
2×ATX assay buffer: 100 mM Tris, 280 mM NaCl, 10 mM KCl, 2 mM CaCl2, 2 mM MgCl2, pH 7.4.
Human ATX protein: expressed and purified in house. Stored at −80° C.
Substrate FS-3 (Echelon, L-2000): 100 μg in 77.74.L H2O (1 mM stock), stored at −20° C.
384-well flat bottom plates—Corning #3575.
Compound dilution—All compounds were provided at 10 mM in 100% DMSO. In the first well, 2 μL of 10 mM compound was added to 78 μL of DMSO (1:40 dilution). In subsequent wells 3-fold dilution (total 10 dilutions) were performed.
1×ATX assay buffer was made up with a final concentration of 1 mg/mL fatty acid free-BSA using 2×ATX assay buffer, 10 mg/ml fatty acid free-BSA and ddH2O.
ATX protein was diluted with 1×ATX assay buffer to a concentration of 1.32 μg/mL (1.32×). 38 μL was added per well to the assay plate. The final concentration of ATX in the reaction as 1.0 μg/mL.
2 μL per well of compounds was transferred to provide the desired concentration. The plate was centrifuged, then incubated at room temperature for 30 minutes on the shaker.
FS-3 was diluted with 1×ATX assay buffer to a concentration of FS-3 of 10 μM (5×). Then, 10 μL was added per well to the assay plate. The final concentration of FS-3 in the reaction was 2 μM. The plate was centrifuged. The plate was kept shaking at room temperature for 2 hours. Because FS-3 substrate is light sensitive, plates were kept covered and protected from light.
Fluorescence was measured using SpectraMax M5 (excitation at 485 nm/emission at 538 nm, top read).

Row | Structure (SMILES) | IC50 [nM]
1 | O=C(NCCCP(=O)(O)O)c1ccc2c(C(F)(F)F)c(OCc3cc(Cl)cc(Cl)c3)ccc2c1 [Example 18, (3-(6-((3,5-dichlorobenzyl)oxy)-5-(trifluoromethyl)-2-naphthamido)propyl)phosphonic acid] | ≤ 100
2 | O=C(O)C[C@H]1CCCN(Cc2ccc3c(C(F)(F)F)c(O[C@H]4CC[C@@H](C(F)(F)F)CC4)ccc3n2)C1 [Example 14, 2-((R)-1-(((5-(trifluoromethyl)-6-(cis-4-(trifluoromethyl)cyclohexyl)oxy)quinolin-2-yl)methyl)piperidin-3-yl)acetic acid] | ≤ 250
3 | O=C(O)CC1CN(Cc2ccc3c(C(F)F)c(O[C@H]4CC[C@@H](C(F)(F)F)CC4)ccc3c2)CCO1 (relative stereo) [Example 32, 2-(4-((5-(difluoromethyl)-6-((cis)-4-(trifluoromethyl)cyclohexyloxy)naphthalen-2-yl)methyl)morpholin-2-yl)acetic acid] | ≤ 500
4 | C[C@H]1CC[C@@H](Oc2ccc3cc(C(C(=O)O)N4CCC(C(=O)O)CC4)ccc3c2C(F)(F)F)CC1 (stereo partly drawn) [Example 11, 1-(Carboxy(6-((cis-4-methylcyclohexyl)oxy)-5-(trifluoromethyl)naphthalen-2-yl)methyl)piperidine-4-carboxylic acid] | ≤ 500
5 | CC(NC1CC(C(=O)O)C1(C)C)c1ccc2c(C(F)(F)F)c(O[C@H]3CC[C@@H](C(F)(F)F)CC3)ccc2n1 (stereo partly drawn) [Example 15, 2,2-dimethyl-3-(((1-(5-(trifluoromethyl)-6-(cis-4-(trifluoromethyl)cyclo-hexyl)oxy)quinolin-2-yl)ethyl)amino)cyclobutanecarboxylic acid] | ≤ 250
6 | CCC(c1ccc2c(C(F)(F)F)c(O[C@H]3CC[C@@H](C)CC3)ccc2c1)N1CCC[C@@H](CC(=O)O)C1 (stereo partly drawn) [Example 52, 2-((3S)-1-(1-(6-((cis-4-Methylcyclohexyl)oxy)-5-(trifluoromethyl)naphthalen-2-yl)propyl)piperidin-3-yl)acetic acid] | ≤ 100
7 | C[C@H]1CC[C@@H](Oc2ccc3cc(CN4CCC(CC(=O)O)C4)ccc3c2C(F)(F)F)CC1 (relative stereo) [Example 46, 1-((5-trifluoromethyl-6-(cis-4-methylcyclohexyloxy)naphthalene-2-yl)methyl)-pyrrolidine-3-acetic acid] | ≤ 500
8 | C[C@H]1CC[C@@H](Oc2ccc3cc(CN4CC(CC(=O)O)C4)ccc3c2C(F)(F)F)CC1 [Example 47, 1-((5-trifluoromethyl-6-(cis-4-methylcyclohexyloxy)naphthalene-2-yl)methyl)-azetidine-3-acetic acid] | ≤ 500
9 | CC[C@H]1CC[C@@H](Oc2ccc3cc(C(C)N4CCC[C@H](CC(=O)O)C4)ccc3c2C(F)(F)F)CC1 (stereo partly drawn) [Example 6, 2-((3R)-1-(1-(6-((cis-4-ethylcyclohexyl)oxy)-5-(trifluoromethyl)naphthalen-2-yl)ethyl)piperidin-3-yl)acetic acid] | ≤ 100
10 | CC(c1ccc2c(C(F)F)c(O[C@H]3CC[C@@H](C)CC3)ccc2c1)N1CCC[C@H](CC(=O)O)C1 (stereo partly drawn) [Example 53, 2-((3R)-1-(1-(6-((cis-4-Methylcyclohexyl)oxy)-5-(difluoromethyl)naphthalen-2-yl)ethyl)piperidin-3-yl)acetic acid] | ≤ 100

Results, then the molecule that gave them:

Row | IC50 [nM] | Structure (SMILES)
11 | ≤ 100 | O=P(O)(O)CCCNCc1ccc2c(C(F)(F)F)c(O[C@H]3CC[C@@H](C(F)(F)F)CC3)ccc2c1 [Example 63, 3-(((5-(trifluoromethyl)-6-(cis-4-(trifluoromethyl)cyclohexyloxy)naphthalene-2-yl)methyl)amino)propylphosphonic acid]
12 | ≤ 250 | O=C(O)CC1CCN(Cc2ccc3c(C(F)(F)F)c(O[C@H]4CC[C@@H](C(F)(F)F)CC4)ccc3c2)C1 (relative stereo) [Example 64, 1-((5-(trifluoromethyl)-6-((cis-4-(trifluoromethyl)cyclohexyl)oxy)-naphthalen-2-yl)methyl)pyrrolidine-3-acetic acid]
13 | ≤ 500 | CC1(C)C(NCc2ccc3c(C(F)(F)F)c(O[C@H]4CC[C@@H](C(F)(F)F)CC4)ccc3c2)CC1C(=O)O (stereo partly drawn) [Example 1, 2,2-dimethyl-3-(((5-(trifluoromethyl)-6-((cis-4-(trifluoromethyl)cyclo-hexyl)oxy)naphthalen-2-yl)methyl)amino)cyclobutanecarboxylic acid]
14 | ≤ 250 | O=C(O)C1CC(O)CN(Cc2ccc3c(C(F)(F)F)c(O[C@H]4CC[C@@H](C(F)(F)F)CC4)ccc3c2)C1 (relative stereo) [Example 81, 1-((5-(trifluoromethyl)-6-(cis-4-(trifluoromethyl)cyclohexyloxy)naphthalene-2-yl)methyl)-5-hydroxypiperidine-3-carboxylic acid]
15 | ≤ 500 | O=C(O)c1ccc(CNC(=O)c2ccc3c(C(F)(F)F)c(O[C@H]4CC[C@@H](C(F)(F)F)CC4)ccc3c2)nc1 [Example 23, 6-((5-(trifluoromethyl)-6-((cis)-4-(trifluoromethyl)cyclohexyloxy)-2-naphthamido)methyl)nicotinic acid]
16 | ≤ 500 | CC1CN(Cc2ccc3c(C(F)(F)F)c(O[C@H]4CC[C@@H](C(F)(F)F)CC4)ccc3c2)CCC1C(=O)O (relative stereo) [Example 74, 1-((5-(trifluoromethyl)-6-((cis-4-(trifluoromethyl)cyclohexyl)oxy)-naphthalen-2-yl)methyl)-3-methylpiperidine-4-carboxylic acid]
17 | ≤ 100 | O=P(O)(O)Cc1ccc(NCc2ccc3c(C(F)(F)F)c(O[C@H]4CC[C@@H](C(F)(F)F)CC4)ccc3c2)cc1 [Example 68, (4-((5-(trifluoromethyl)-6-(cis-4-(trifluoromethyl)cyclohexyloxy)naphthalene-2-yl)methyl)aminophenyl)methylphosphonic acid]
18 | ≤ 250 | CC(C)C(NC1CC(C(=O)O)C1(C)C)c1ccc2c(C(F)(F)F)c(O[C@H]3CC[C@@H](C(F)(F)F)CC3)ccc2c1 (relative stereo) [Example 39, 2,2-dimethyl-3-(2-methyl-1-(5-(trifluoromethyl)-6-((cis)-4-(trifluoromethyl)cyclohexyloxy)naphthalen-2-yl)propylamino)cyclobutanecarboxylic acid]
19 | ≤ 250 | O=C(O)c1ccc(CNCc2ccc3c(C(F)(F)F)c(O[C@H]4CC[C@@H](C(F)(F)F)CC4)ccc3c2)cn1 [Example 75, 5-((((5-(trifluoromethyl)-6-((cis-4-(trifluoromethyl)cyclohexyl)oxy)-naphthalen-2-yl)methyl)amino)methyl)pyridine-2-carboxylic acid]
20 | ≤ 500 | O=C(O)C1CCCCN1Cc1ccc2c(C(F)(F)F)c(O[C@H]3CC[C@@H](C(F)(F)F)CC3)ccc2c1 (relative stereo) [Example 29, 1-((5-(trifluoromethyl)-6-((cis)-4-(trifluoromethyl)cyclohexyloxy)naphthalen-2-yl)methyl)piperidine-2-carboxylic acid]
21 | ≤ 500 | O=C(O)CCC1CCN(Cc2ccc3c(C(F)(F)F)c(O[C@H]4CC[C@@H](C(F)(F)F)CC4)ccc3c2)CC1 [Example 83, 3-(1-((2-(cis-4-(trifluoromethyl)cyclohexyloxy)-1-(trifluoromethyl)naphthalen-6-yl)methyl)piperidine-4-yl)propionic acid]
